Experimental data: US9517993B2, “Antagonists of the toll-like receptor 1/2 complex” (THE REGENTS OF THE UNIVERSITY OF COLORADO, a body corporate, priority 2012, dated 2016)

Assays:
TLR7 = target: T1, TLR7 (Mus musculus, UniProt P58681); test: RAW 264.7 nitric oxide TLR selectivity assay (R848); format: cell-based; details: 100 nM R848
T1 construct: RAW 264.7 Cells Nitric Oxide TLR Selectivity Assay; endogenous in cells; host or cells: RAW 264.7
T1 sequence (P58681 27-1050): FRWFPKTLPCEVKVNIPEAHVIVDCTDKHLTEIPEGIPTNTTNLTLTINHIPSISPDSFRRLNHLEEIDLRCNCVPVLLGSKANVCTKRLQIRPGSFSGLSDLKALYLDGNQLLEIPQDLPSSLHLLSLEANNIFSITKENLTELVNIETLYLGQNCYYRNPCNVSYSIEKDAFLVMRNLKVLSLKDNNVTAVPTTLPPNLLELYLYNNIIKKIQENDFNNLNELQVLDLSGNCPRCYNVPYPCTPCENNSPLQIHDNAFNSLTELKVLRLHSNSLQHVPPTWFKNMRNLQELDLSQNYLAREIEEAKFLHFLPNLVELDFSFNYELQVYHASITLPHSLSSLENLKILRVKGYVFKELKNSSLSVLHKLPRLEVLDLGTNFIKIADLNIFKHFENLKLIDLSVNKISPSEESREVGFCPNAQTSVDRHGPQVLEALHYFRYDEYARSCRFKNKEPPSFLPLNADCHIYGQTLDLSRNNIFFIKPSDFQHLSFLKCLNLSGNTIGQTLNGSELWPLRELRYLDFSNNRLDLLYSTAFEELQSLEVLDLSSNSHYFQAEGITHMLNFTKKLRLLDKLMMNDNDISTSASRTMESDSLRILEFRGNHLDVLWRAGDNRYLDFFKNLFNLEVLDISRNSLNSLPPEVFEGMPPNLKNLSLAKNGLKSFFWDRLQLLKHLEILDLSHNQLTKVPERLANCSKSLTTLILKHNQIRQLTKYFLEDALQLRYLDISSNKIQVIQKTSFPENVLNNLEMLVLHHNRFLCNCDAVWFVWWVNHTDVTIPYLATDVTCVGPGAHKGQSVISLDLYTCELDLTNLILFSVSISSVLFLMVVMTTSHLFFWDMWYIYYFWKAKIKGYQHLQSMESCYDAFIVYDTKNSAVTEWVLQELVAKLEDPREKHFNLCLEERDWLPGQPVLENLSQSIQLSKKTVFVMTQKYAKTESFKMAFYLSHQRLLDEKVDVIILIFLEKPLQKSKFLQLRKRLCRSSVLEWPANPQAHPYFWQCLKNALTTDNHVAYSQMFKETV
Protocol: RAW 264.7 (Mouse leukaemic monocyte macrophage cell line) cells were grown in RPMI 1640 medium, supplemented with 10% FBS, penicillin (100 U/mL) and streptomycin ([…]). RAW cells were then planted in 96-well plates at 80,000 cells per well and grown for 24 h in the media descried previously at 37° C. in a 5% CO2 humidified incubator. After 24 h, non-adherent cells and media were removed and replaced with fresh unsupplemented RPMI 1640 medium. The adherent macrophages were treated with Pam3CSK4 (CAS No. 112208-00-1; a synthetic triacylated lipopeptide (LP) that mimics the acylated amino terminus of bacterial LPs) (200 ng/mL) (Invivogen, USA), an agonist of TLR1/2, and then added different concentrates of potential inhibitor. Two rows were only treated with Pam3CSK4 as control. […] The reaction was quenched by addition of 5 μL of a 3 M aqueous NaOH solution and the plate was read on Beckman Coulter DTX880 reader (Beckman Coulter, Calif., USA) with excitation at 365 nm and emission at 450 nm. The nitrite (a stable metabolite of nitric oxide) concentration was determined from a nitrite standard curve. The inhibition rate (%) of NO release was determined using the following formula: Inhibition (%)=[Pam3CSK4(OD450) […]]/[Pam3CSK4 (OD450)−Control (OD450)]×100. The IC50 values for both inhibition and cytotoxicity were determined graphically using software Origin v7.5. […]

TLR1/2 = target: T2, TLR1/2 (Mus musculus, UniProt Q9EPQ1+Q9QUN7); test: In vitro TLR1/2 inhibition assay (nitric oxide, Pam3CSK4-activated RAW 264.7 macrophages); format: cell-based; details: for TLR1/2 inhibitory activity (in words, SAR and specificity): RAW 264.7 NO assay, Pam3CSK4; for IC50: RAW 264.7 cells, Pam3CSK4 200 ng/mL, nitric oxide readout, read-out: IC50, inhibition of Pam3CSK4-induced TLR1/2 activation (NO assay)
T2 construct: production of NO in RAW 264.7 macrophage cells; endogenous in cells; host or cells: RAW 264.7
Protocol: To identify novel TLR1/2 complex inhibitors, a cell-based assay was employed to screen the NCI-2 diversity small-molecule library. This 1,363 compound library was chosen from the larger NCI library, which has more than 140,000 compounds, on the basis of availability, purity, and other pharmacological features, such as relative rigidity, number of rotatable bonds and chiral centers, the absence of obvious leaving groups and weakly bounded heteroatoms, etc. Screening was performed in a 96-well plate format using a previously established high-throughput nitric oxide (NO) assay. See e.g. Cheng et al., Small molecule inhibitors of the TLR3/dsRNA complex, J. Am. Chem. Soc. (2011), 133:3764-67, which is herein incorporated by reference in its entirety. Briefly, synthetic triacylated lipoprotein Pam3CSK4 was employed to selectively activate TLR1/2 signaling, resulting in the expression of inducible nitric oxide synthase (iNOS) and the production of NO in RAW 264.7 macrophage cells. NO levels were monitored as an indicator of Pam3CSK4-induced TLR1/2 activation to evaluate the compound's inhibitory activity.
RAW 264.7 (Mouse leukaemic monocyte macrophage cell line) cells were grown in RPMI 1640 medium, supplemented with 10% FBS, penicillin (100 U/mL) and streptomycin ([…]). RAW cells were then planted in 96-well plates at 80,000 cells per well and grown for 24 h in the media descried previously at 37° C. in a 5% CO2 humidified incubator. After 24 h, non-adherent cells and media were removed and replaced with fresh unsupplemented RPMI 1640 medium. The adherent macrophages were treated with Pam3CSK4 (CAS No. 112208-00-1; a synthetic triacylated lipopeptide (LP) that mimics the acylated amino terminus of bacterial LPs) (200 ng/mL) (Invivogen, USA), an agonist of TLR1/2, and then added different concentrates of potential inhibitor. Two rows were only treated with Pam3CSK4 as control. Plates were then incubated for an additional 24 h. Following incubation 100 μL of media was removed and added to flat black 96-well microfluor plates (Thermo Scientific, MA, USA). To each well, 10 μL of 2,3-diaminonaphthalene (0.05 mg/mL in 0.62 M aqueous HCl solution) was added and incubated for 15 min in the dark. The reaction was quenched by addition of 5 μL of a 3 M aqueous NaOH solution and the plate was read on Beckman Coulter DTX880 reader (Beckman Coulter, Calif., USA) with excitation at 365 nm and emission at 450 nm. The nitrite (a stable metabolite of nitric oxide) concentration was determined from a nitrite standard curve. The inhibition rate (%) of NO release was determined using the following formula: Inhibition (%)=[Pam3CSK4(OD450) […]]/[Pam3CSK4 (OD450)−Control (OD450)]×100. The IC50 values for both inhibition and cytotoxicity were determined graphically using software Origin v7.5.

T2 sequence (Q9EPQ1 26-795): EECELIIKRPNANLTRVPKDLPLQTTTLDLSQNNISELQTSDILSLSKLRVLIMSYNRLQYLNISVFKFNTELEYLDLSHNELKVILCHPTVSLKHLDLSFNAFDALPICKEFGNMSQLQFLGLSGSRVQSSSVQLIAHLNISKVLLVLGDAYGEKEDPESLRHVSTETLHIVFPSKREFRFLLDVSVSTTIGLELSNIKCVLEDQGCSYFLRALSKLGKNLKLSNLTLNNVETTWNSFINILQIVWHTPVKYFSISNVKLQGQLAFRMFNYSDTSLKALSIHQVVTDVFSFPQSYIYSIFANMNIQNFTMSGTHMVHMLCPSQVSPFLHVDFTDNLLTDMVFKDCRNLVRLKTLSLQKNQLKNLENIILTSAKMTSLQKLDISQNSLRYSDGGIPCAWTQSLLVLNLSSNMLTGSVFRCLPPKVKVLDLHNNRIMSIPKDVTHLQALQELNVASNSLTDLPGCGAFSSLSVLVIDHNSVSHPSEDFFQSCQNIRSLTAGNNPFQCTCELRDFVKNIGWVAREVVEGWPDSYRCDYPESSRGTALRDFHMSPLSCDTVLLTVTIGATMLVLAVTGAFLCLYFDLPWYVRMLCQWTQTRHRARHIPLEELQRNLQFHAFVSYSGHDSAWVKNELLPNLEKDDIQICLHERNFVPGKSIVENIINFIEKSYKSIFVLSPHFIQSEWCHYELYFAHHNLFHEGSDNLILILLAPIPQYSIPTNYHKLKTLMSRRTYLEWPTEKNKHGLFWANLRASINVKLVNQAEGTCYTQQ
T2 sequence (Q9QUN7 25-784): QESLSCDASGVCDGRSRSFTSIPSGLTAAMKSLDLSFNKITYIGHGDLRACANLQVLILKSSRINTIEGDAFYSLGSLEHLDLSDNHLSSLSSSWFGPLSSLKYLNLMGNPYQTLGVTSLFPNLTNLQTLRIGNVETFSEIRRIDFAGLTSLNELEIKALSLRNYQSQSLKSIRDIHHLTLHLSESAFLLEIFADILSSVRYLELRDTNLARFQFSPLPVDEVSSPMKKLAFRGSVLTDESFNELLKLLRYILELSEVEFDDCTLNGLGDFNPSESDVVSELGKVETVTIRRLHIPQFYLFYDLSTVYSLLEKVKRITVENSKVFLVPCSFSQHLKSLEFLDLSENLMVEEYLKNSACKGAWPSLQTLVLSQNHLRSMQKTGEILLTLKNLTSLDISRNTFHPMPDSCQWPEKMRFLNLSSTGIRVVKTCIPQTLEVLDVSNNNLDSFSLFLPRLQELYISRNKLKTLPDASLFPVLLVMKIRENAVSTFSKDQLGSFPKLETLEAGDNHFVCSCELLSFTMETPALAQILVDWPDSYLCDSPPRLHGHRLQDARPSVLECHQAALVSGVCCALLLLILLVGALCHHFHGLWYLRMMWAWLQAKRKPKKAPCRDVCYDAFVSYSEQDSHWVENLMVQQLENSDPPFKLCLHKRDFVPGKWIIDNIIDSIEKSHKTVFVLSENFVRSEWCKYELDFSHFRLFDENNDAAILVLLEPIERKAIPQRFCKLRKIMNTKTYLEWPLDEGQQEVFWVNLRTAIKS

| Compound | inhibition of TLR7 signaling (TLR7; 3 μM compound) | TLR1/2 inhibitory activity (in words, SAR and specificity) (TLR1/2) | IC50 (TLR1/2) | inhibition of TLR7 signaling (TLR7; 0.5 μM compound) | TLR1/2 inhibitory activity (in words, SAR and specificity) (TLR1/2; listed as Compound 17) |
| --- | --- | --- | --- | --- | --- |
| O=c1c(O)cccc2cc(O)c(O)c(O)c12 [NCI35676, purpurogallin, reference compound] | no other homologous TLRs | specifically inhibited TLR1/2 signaling | 2450 ± 250 nM |  |  |
| CCCCCCOC(=O)c1cc(O)c(=O)c2c(O)c(O)c(OC)cc2c1 [compound 17, Hexyl 3,4,6-trihydroxy-2-methoxy-5-oxo-5H-benzo[7]annulene-8-carboxylate] |  | highest inhibitory activity | 580 ± 90 nM | without affecting other TLRs | inhibit TLR1/2 signaling |
